In PubChem BioAssay (NCI):
Several values for one entry are separate records, joined by “and”; a condition that tells them apart may be missing. Identical values can stand only once.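 Grown in 96-well plates, cells were treated for 48 hours with each compound at five concentrations. Insufficient inhibition: endpoint recorded as highest concentration tested. Abbreviation: GI50, concentration required for 50% inhibition of growth. The concentration for full growth arrest is given as TGI.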

Tests used:
Test in all cases: NCI tumour cell line growth inhibition, 48 h
786-0 renal = test system: 786-0 renal
A498 renal = test system: A498 renal
A549 NSCLC = test system: A549 NSCLC
ACHN renal = test system: ACHN renal
BT-549 breast = test system: BT-549 breast
CAKI-1 renal = test system: CAKI-1 renal
CCRF-CEM leukemia = test system: CCRF-CEM leukemia
COLO 205 colon = test system: COLO 205 colon
DU-145 prostate = test system: DU-145 prostate
EKVX NSCLC = test system: EKVX NSCLC
HCC-2998 colon = test system: HCC-2998 colon
HCT-116 colon = test system: HCT-116 colon
HCT-15 colon = test system: HCT-15 colon
HL-60(TB) leukemia = test system: HL-60(TB) leukemia
HOP-62 NSCLC = test system: HOP-62 NSCLC
HOP-92 NSCLC = test system: HOP-92 NSCLC
HS 578T breast = test system: HS 578T breast
HT29 colon = test system: HT29 colon
IGROV1 ovarian = test system: IGROV1 ovarian
K-562 leukemia = test system: K-562 leukemia
KM12 colon = test system: KM12 colon
LOX IMVI melanoma = test system: LOX IMVI melanoma
M14 melanoma = test system: M14 melanoma
MALME-3M melanoma = test system: MALME-3M melanoma
MCF7 breast = test system: MCF7 breast
MDA-MB-231 breast = test system: MDA-MB-231 breast
MDA-MB-435 = test system: MDA-MB-435
MOLT-4 leukemia = test system: MOLT-4 leukemia
NCI-H226 lung = test system: NCI-H226 lung
NCI-H23 lung = test system: NCI-H23 lung
NCI-H460 lung = test system: NCI-H460 lung
NCI-H522 lung = test system: NCI-H522 lung
NCI/ADR-RES ovarian = test system: NCI/ADR-RES ovarian
OVCAR-3 ovarian = test system: OVCAR-3 ovarian
OVCAR-4 ovarian = test system: OVCAR-4 ovarian
OVCAR-5 ovarian = test system: OVCAR-5 ovarian
OVCAR-8 ovarian = test system: OVCAR-8 ovarian
PC-3 prostate = test system: PC-3 prostate
RPMI-8226 leukemia = test system: RPMI-8226 leukemia
RXF 393 renal = test system: RXF 393 renal
SF-268 CNS = test system: SF-268 CNS
SF-295 CNS = test system: SF-295 CNS
SF-539 CNS = test system: SF-539 CNS
SK-MEL-2 melanoma = test system: SK-MEL-2 melanoma
SK-MEL-28 melanoma = test system: SK-MEL-28 melanoma
SK-MEL-5 melanoma = test system: SK-MEL-5 melanoma
SK-OV-3 ovarian = test system: SK-OV-3 ovarian
SN12C renal = test system: SN12C renal
SNB-19 CNS = test system: SNB-19 CNS
SNB-75 CNS = test system: SNB-75 CNS
SR leukemia = test system: SR leukemia
SW-620 colon = test system: SW-620 colon
T-47D breast = test system: T-47D breast
TK-10 renal = test system: TK-10 renal
U251 CNS = test system: U251 CNS
UACC-257 melanoma = test system: UACC-257 melanoma
UACC-62 melanoma = test system: UACC-62 melanoma
UO-31 renal = test system: UO-31 renal

COc1cc2c(c(O)c1Br)C(=O)c1c(O)cc(C[C@H](C)O)cc1[C@H]2[C@H]1c2cc(C[C@H](C)O)cc(O)c2C(=O)c2c1cc(OC)c(Br)c2O
GI50 (786-0 renal): 23 µM and 14.1 µM
TGI (786-0 renal): 67.5 µM and > 100 µM
GI50 (A498 renal): 4.35 µM and 22.5 µM
TGI (A498 renal): 35.1 µM and 58.5 µM
GI50 (A549 NSCLC): 10.1 µM and 20.9 µM
TGI (A549 NSCLC): 32.9 µM and > 100 µM
GI50 (ACHN renal): 2.38 µM and 10.5 µM
TGI (ACHN renal): 9.27 µM and 23.1 µM
GI50 (BT-549 breast): 10.9 µM and 7.55 µM
TGI (BT-549 breast): 63.5 µM and 45.2 µM
GI50 (CAKI-1 renal): 10.6 µM and 28.4 µM
TGI (CAKI-1 renal): 33.3 µM and 94.6 µM
GI50 (CCRF-CEM leukemia): 3.86 µM and 14.3 µM
TGI (CCRF-CEM leukemia): 67.5 µM and 92.9 µM
GI50 (COLO 205 colon): 2.32 µM and 6.74 µM
TGI (COLO 205 colon): 9.21 µM and 24.9 µM
GI50 (DU-145 prostate): 4.8 µM and 23.1 µM
TGI (DU-145 prostate): 67.5 µM and > 100 µM
GI50 (EKVX NSCLC): 4.86 µM and 6.86 µM
TGI (EKVX NSCLC): 16.3 µM and 27.5 µM
GI50 (HCC-2998 colon): 8.39 µM and 14.8 µM
TGI (HCC-2998 colon): 67.5 µM and > 100 µM
GI50 (HCT-116 colon): 3.77 µM and 5.49 µM
TGI (HCT-116 colon): 67.5 µM and 63.1 µM
GI50 (HCT-15 colon): 10.4 µM and 17.4 µM
TGI (HCT-15 colon): 67.5 µM and > 100 µM
GI50 (HL-60(TB) leukemia): 3.28 µM and 17.4 µM
TGI (HL-60(TB) leukemia): 28 µM and 48.5 µM
GI50 (HOP-62 NSCLC): 6.76 µM and 19.1 µM
TGI (HOP-62 NSCLC): 63.1 µM and 96 µM
GI50 (HOP-92 NSCLC): 5.31 µM and 9.42 µM
TGI (HOP-92 NSCLC): 32.3 µM and 39.6 µM
GI50 (HS 578T breast): 2.99 µM and 4.1 µM
TGI (HS 578T breast): 67.5 µM and 65.9 µM
GI50 (HT29 colon): 2.39 µM and 4.83 µM
TGI (HT29 colon): 67.5 µM and > 100 µM
GI50 (IGROV1 ovarian): 2.98 µM and 5.45 µM
TGI (IGROV1 ovarian): 46.7 µM and 28.2 µM
GI50 (K-562 leukemia): 2.74 µM and 6.22 µM
TGI (K-562 leukemia): 67.5 µM and > 100 µM
GI50 (KM12 colon): 5.96 µM and 26.4 µM
TGI (KM12 colon): 37.9 µM and 82.4 µM
GI50 (LOX IMVI melanoma): 6.57 µM and 11.4 µM
TGI (LOX IMVI melanoma): 16.2 µM and 34.4 µM
GI50 (M14 melanoma): 11.4 µM and 20.9 µM
TGI (M14 melanoma): 45.8 µM and > 100 µM
GI50 (MALME-3M melanoma): 6.65 µM and 12.8 µM
TGI (MALME-3M melanoma): 17 µM and 26.1 µM
GI50 (MCF7 breast): 2.44 µM and 3.58 µM
TGI (MCF7 breast): 67.5 µM and > 100 µM
GI50 (MDA-MB-231 breast): 3.76 µM and 14.1 µM
TGI (MDA-MB-231 breast): 21.7 µM and 34.8 µM
GI50 (MDA-MB-435): 5.76 µM and 13.4 µM
TGI (MDA-MB-435): 36.1 µM and 37.6 µM
GI50 (MOLT-4 leukemia): 3.54 µM and 6.39 µM
TGI (MOLT-4 leukemia): 67.5 µM and > 100 µM
GI50 (NCI-H226 lung): 6.33 µM and 10.6 µM
TGI (NCI-H226 lung): 30.9 µM and 47.6 µM
GI50 (NCI-H23 lung): 5.85 µM and 4.83 µM
TGI (NCI-H23 lung): 42.1 µM and 39.3 µM
GI50 (NCI-H460 lung): 2.76 µM and 5.27 µM
TGI (NCI-H460 lung): 21.4 µM and 19.4 µM
GI50 (NCI-H522 lung): 8.02 µM and 25.7 µM
TGI (NCI-H522 lung): 18.9 µM and 78.7 µM
GI50 (NCI/ADR-RES ovarian): 17.5 µM and 28.5 µM
TGI (NCI/ADR-RES ovarian): 59.9 µM and > 100 µM
GI50 (OVCAR-3 ovarian): 15.3 µM and 31.1 µM
TGI (OVCAR-3 ovarian): 67.5 µM and > 100 µM
GI50 (OVCAR-4 ovarian): 11.1 µM and 25 µM
TGI (OVCAR-4 ovarian): 67.5 µM and 98.1 µM
GI50 (OVCAR-5 ovarian): 11.1 µM and 17.1 µM
TGI (OVCAR-5 ovarian): 27.4 µM and 46.5 µM
GI50 (OVCAR-8 ovarian): 3.23 µM and 7.56 µM
TGI (OVCAR-8 ovarian): 67.5 µM and > 100 µM
GI50 (PC-3 prostate): 2.85 µM and 4.4 µM
TGI (PC-3 prostate): 67.5 µM and > 100 µM
GI50 (RPMI-8226 leukemia): 2.19 µM and 3 µM
TGI (RPMI-8226 leukemia): 67.5 µM and 11.4 µM
GI50 (RXF 393 renal): 2.59 µM and 2.72 µM
TGI (RXF 393 renal): 22 µM and 9.33 µM
GI50 (SF-268 CNS): 12.3 µM and 31.2 µM
TGI (SF-268 CNS): 67.5 µM and > 100 µM
GI50 (SF-295 CNS): 8 µM and 10.2 µM
TGI (SF-295 CNS): 21.5 µM and 22.4 µM
GI50 (SF-539 CNS): 2.66 µM and 3.67 µM
TGI (SF-539 CNS): 14.8 µM and 13.6 µM
GI50 (SK-MEL-2 melanoma): 6.37 µM and 18.1 µM
TGI (SK-MEL-2 melanoma): 19.6 µM and 44 µM
GI50 (SK-MEL-28 melanoma): 4.54 µM and 5.6 µM
TGI (SK-MEL-28 melanoma): 32.9 µM and > 100 µM
GI50 (SK-MEL-5 melanoma): 7.44 µM and 15 µM
TGI (SK-MEL-5 melanoma): 16 µM and 28.5 µM
GI50 (SK-OV-3 ovarian): 11.6 µM and 24.3 µM
TGI (SK-OV-3 ovarian): 47.1 µM and 89.8 µM
GI50 (SN12C renal): 2.25 µM and 3.64 µM
TGI (SN12C renal): 67.5 µM and > 100 µM
GI50 (SNB-19 CNS): 5.07 µM and 10.4 µM
TGI (SNB-19 CNS): 67.5 µM and 80.1 µM
GI50 (SNB-75 CNS): 5.09 µM and 16 µM
TGI (SNB-75 CNS): 56.5 µM and 67 µM
GI50 (SR leukemia): 3.04 µM and 3.98 µM
TGI (SR leukemia): 67.5 µM and > 100 µM
GI50 (SW-620 colon): 5.36 µM and 19.9 µM
TGI (SW-620 colon): 67.5 µM and > 100 µM
GI50 (T-47D breast): 2.04 µM and 4.09 µM
TGI (T-47D breast): 13.2 µM and 23.4 µM
GI50 (TK-10 renal): 13.8 µM and 31.4 µM
TGI (TK-10 renal): 67.5 µM and > 100 µM
GI50 (U251 CNS): 2.97 µM and 5.25 µM
TGI (U251 CNS): 23.1 µM and 39.2 µM
GI50 (UACC-257 melanoma): 11.2 µM and 19.1 µM
TGI (UACC-257 melanoma): 39.8 µM and 67.7 µM
GI50 (UACC-62 melanoma): 2.47 µM and 17.5 µM
TGI (UACC-62 melanoma): 13.7 µM and 90.7 µM
GI50 (UO-31 renal): 7.52 µM and 15.4 µM
TGI (UO-31 renal): 15.9 µM and 29.8 µM
